The results in this text go back to ChEMBL document CHEMBL5291721, “A preclinical secondary pharmacology resource illuminates target-adverse drug reaction associations of marketed drugs” (Nat Commun, 2023).

Where a SMILES comes first, the peptide text is derived from it. [ ]: non-standard residue; d: D form. pGlu = O=C1CC[C@@H](C(=O)O)N1; Thz = O=C(O)[C@@H]1CSCN1

For experiment [1], the target named is T1, Type-1 angiotensin II receptor (Homo sapiens, UniProt P30556).
T1 sequence (P30556 whole entry): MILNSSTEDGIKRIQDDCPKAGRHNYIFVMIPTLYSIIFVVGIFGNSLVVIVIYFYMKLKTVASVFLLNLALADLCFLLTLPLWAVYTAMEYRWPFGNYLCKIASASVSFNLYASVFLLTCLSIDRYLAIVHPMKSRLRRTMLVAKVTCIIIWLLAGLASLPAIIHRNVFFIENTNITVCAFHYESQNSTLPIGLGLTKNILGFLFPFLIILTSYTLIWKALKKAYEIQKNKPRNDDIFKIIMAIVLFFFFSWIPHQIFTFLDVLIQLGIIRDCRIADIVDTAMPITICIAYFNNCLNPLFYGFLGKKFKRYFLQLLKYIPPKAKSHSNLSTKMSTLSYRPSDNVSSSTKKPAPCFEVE

Experiment [2] has as its target Voltage-gated inwardly rectifying potassium channel KCNH2 (Homo sapiens, UniProt Q12809). It is filed as functional.
Another experiment addresses T2, Glucocorticoid receptor (Homo sapiens, UniProt P04150).
T2 sequence (P04150 whole entry): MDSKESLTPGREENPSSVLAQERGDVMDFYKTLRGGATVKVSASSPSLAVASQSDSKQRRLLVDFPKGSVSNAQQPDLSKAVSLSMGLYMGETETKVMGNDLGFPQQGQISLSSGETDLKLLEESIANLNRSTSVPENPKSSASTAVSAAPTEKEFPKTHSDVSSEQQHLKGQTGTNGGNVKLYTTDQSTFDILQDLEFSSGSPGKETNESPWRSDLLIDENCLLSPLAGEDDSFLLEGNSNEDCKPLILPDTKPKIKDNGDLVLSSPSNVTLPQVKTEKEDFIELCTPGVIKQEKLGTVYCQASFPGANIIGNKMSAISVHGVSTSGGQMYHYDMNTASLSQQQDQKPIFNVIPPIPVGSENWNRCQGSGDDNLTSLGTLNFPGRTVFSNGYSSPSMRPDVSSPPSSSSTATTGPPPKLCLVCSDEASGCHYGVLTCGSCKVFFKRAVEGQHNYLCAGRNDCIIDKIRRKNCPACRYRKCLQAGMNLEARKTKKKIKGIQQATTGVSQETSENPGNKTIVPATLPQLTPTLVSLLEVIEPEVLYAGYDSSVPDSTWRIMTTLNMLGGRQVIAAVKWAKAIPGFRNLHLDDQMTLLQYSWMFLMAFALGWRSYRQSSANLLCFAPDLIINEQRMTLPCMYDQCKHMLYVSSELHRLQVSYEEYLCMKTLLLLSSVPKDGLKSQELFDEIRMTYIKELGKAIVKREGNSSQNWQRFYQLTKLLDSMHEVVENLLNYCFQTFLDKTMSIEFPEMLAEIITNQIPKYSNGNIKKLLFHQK

The target of another experiment is D(3) dopamine receptor (Homo sapiens, UniProt P35462).
The target in experiment [3] is T3, 5-hydroxytryptamine receptor 2C (Homo sapiens, UniProt P28335).
T3 sequence (P28335 whole entry): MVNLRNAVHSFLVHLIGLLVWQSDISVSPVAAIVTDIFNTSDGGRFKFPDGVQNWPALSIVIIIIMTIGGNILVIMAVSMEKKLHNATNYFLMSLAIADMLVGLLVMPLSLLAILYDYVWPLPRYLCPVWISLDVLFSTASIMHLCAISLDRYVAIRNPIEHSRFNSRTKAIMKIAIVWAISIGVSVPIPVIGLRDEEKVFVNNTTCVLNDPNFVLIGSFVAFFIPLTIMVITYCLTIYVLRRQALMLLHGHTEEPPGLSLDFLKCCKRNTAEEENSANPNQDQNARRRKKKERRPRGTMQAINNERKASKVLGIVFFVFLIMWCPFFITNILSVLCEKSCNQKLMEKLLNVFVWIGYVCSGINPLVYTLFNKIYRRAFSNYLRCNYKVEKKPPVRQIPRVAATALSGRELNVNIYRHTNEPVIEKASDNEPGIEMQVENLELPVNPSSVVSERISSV

Experiment [4] deals with T4, Prostaglandin G/H synthase 1 (Rattus norvegicus, UniProt Q63921).
T4 sequence (Q63921 whole entry): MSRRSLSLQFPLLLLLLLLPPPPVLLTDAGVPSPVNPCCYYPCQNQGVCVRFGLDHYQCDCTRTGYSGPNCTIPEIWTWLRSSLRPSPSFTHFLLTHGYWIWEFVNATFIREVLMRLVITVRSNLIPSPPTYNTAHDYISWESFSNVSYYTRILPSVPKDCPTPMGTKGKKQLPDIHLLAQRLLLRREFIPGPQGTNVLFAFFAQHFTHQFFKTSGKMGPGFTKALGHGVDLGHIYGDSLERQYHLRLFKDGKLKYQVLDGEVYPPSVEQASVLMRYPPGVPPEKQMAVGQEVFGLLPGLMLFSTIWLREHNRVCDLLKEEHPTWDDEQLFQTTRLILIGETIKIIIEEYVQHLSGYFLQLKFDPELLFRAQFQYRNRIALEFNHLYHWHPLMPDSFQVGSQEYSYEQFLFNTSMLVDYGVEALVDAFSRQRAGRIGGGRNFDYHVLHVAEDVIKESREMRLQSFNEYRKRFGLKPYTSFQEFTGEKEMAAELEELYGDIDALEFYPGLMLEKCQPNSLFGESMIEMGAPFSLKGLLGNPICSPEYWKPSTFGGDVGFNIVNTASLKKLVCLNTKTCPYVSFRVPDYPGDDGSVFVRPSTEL
It is filed as functional.

Experiment [5] addresses T5, Amine oxidase [flavin-containing] A (Homo sapiens, UniProt P21397).
T5 sequence (P21397 whole entry): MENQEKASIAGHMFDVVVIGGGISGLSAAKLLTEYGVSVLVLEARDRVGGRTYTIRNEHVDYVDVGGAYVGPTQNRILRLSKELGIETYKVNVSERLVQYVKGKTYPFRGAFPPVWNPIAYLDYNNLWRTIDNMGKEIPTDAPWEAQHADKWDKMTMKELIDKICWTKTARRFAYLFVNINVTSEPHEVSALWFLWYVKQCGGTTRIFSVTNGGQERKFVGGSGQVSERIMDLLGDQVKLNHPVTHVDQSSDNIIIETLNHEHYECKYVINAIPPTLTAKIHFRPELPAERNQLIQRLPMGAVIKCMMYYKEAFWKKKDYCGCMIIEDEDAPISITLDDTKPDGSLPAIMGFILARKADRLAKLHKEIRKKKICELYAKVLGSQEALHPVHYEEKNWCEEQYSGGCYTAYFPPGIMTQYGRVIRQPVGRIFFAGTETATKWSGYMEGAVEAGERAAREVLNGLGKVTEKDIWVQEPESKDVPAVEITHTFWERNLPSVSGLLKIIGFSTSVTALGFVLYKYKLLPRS
Format: functional.
Also: assay procedure not described here.

Sequence of Voltage-gated inwardly rectifying potassium channel KCNH2 (Q12809 whole entry): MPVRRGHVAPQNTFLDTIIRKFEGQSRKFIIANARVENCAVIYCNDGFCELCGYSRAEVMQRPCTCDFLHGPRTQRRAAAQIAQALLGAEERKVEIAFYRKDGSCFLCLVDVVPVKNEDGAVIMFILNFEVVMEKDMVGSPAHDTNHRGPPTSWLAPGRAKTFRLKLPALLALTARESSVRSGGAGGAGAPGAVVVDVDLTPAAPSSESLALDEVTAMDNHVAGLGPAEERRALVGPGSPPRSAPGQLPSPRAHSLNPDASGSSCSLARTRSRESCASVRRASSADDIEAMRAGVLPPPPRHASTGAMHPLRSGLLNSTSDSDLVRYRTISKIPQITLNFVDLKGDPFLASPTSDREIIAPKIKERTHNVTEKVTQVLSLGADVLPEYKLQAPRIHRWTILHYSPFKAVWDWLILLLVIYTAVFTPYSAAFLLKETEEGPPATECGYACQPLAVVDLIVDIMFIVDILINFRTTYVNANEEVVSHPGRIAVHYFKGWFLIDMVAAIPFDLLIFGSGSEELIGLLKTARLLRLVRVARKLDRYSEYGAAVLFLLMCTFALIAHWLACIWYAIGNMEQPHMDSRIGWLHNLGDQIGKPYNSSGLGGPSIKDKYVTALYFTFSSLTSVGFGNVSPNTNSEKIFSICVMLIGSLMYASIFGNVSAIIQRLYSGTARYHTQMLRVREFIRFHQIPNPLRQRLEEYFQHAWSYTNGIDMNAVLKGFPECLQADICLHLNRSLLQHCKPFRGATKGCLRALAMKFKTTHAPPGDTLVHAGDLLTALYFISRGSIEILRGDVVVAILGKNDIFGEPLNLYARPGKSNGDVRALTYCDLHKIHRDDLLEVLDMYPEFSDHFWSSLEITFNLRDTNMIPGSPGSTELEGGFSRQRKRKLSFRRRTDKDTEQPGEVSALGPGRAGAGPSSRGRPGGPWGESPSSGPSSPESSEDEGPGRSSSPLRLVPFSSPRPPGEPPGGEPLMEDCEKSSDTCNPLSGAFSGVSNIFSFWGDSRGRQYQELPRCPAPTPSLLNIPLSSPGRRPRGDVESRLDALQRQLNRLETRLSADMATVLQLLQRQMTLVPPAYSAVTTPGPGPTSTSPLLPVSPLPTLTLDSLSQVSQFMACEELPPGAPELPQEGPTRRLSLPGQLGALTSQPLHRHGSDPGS
Sequence of D(3) dopamine receptor (P35462 whole entry): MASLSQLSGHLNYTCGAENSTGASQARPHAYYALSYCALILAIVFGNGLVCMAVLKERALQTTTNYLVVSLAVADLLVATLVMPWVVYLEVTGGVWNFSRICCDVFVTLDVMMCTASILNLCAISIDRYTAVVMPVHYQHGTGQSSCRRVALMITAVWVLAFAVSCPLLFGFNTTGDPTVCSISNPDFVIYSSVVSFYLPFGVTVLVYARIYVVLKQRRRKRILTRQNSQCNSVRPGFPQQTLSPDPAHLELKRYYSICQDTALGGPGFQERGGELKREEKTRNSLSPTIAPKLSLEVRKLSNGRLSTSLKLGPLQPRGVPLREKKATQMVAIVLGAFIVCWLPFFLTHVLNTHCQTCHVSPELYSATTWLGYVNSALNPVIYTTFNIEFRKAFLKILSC

Broadly, the AC50 is the concentration at which the activity in the assay is half-maximal. Read a high AC50 as weaker potency. For `O=C(c1cc(Cc2n[nH]c(=O)c3ccccc23)ccc1F)N1CCN(C(=O)C2CC2)CC1` [OLAPARIB], the AC50 (in experiment [1]; in experiment [2]; at Glucocorticoid receptor; on D(3) dopamine receptor; in experiment [3]; in experiment [4]) was more than 30 µM in each case. Moreover, the AC50 in experiment [5] was more than 10 µM.

Regarding `O=c1[nH]c2ccccc2n1CCCN1CCN(C(c2ccccc2)c2ccccc2)CC1` [OXATOMIDE], the half-maximal activity concentration (AC50) is 17 µM in experiment [1]; 0.026 µM in experiment [2]; more than 30 µM on Glucocorticoid receptor; 0.13 µM on D(3) dopamine receptor; 1.7 µM in experiment [3]; more than 30 µM in experiment [4]. The molecule also displayed an AC50 in experiment [5] of more than 30 µM.

Turning to `C[C@]12C/C(=C/O)C(=O)C[C@@H]1CC[C@@H]1[C@@H]2CC[C@@]2(C)[C@H]1CC[C@]2(C)O` [OXYMETHOLONE], the concentration at half-maximal activity (AC50) was 15 µM in experiment [1]; more than 30 µM in experiment [2]; 21 µM at Glucocorticoid receptor; more than 30 µM on D(3) dopamine receptor; more than 30 µM in experiment [3]; 19 µM in experiment [4]. Moreover, the AC50 in experiment [5] is more than 30 µM.

As for `NC(=O)NC(=O)Cc1ccccc1` [PHENACEMIDE], the AC50 is more than 10 µM in experiment [1]; more than 30 µM in experiment [2]; more than 10 µM on Glucocorticoid receptor; more than 30 µM on D(3) dopamine receptor; more than 30 µM in experiment [3]; more than 10 µM in experiment [4]. Besides, the AC50 in experiment [5] is more than 10 µM.

On to `OC[C@H]1O[C@@H](Oc2cc(O)cc(/C=C/c3ccc(O)cc3)c2)[C@H](O)[C@@H](O)[C@@H]1O` [PICEID], for which the AC50 in experiment [1] is more than 30 µM; in experiment [2], more than 30 µM; on Glucocorticoid receptor it was more than 30 µM; on D(3) dopamine receptor, more than 30 µM; in experiment [3], more than 30 µM; in experiment [4], 4.4 µM. This molecule also displayed a half-maximal activity concentration (AC50) in experiment [5] of more than 30 µM.

On to `O=C1CC[C@@H](C(=O)N2CSC[C@H]2C(=O)O)N1` [PIDOTIMOD] ([pGlu]-[Thz]-OH), for which the half-maximal activity concentration (AC50) (in experiment [1]; in experiment [2]; on Glucocorticoid receptor; on D(3) dopamine receptor; in experiment [3]; in experiment [4]) was more than 30 µM each time. The AC50 in experiment [5] is more than 30 µM.

For `CCCN(CCC)S(=O)(=O)c1ccc(C(=O)O)cc1` [PROBENECID], the concentration at half-maximal activity (AC50) in experiment [1] is more than 10 µM; in experiment [2], more than 30 µM; on Glucocorticoid receptor, more than 10 µM; on D(3) dopamine receptor, more than 30 µM; in experiment [3] it was more than 30 µM; in experiment [4] it was more than 10 µM. For the same molecule, the AC50 in experiment [5] is more than 10 µM.

For the molecule `CCC(NC(C)C)C(O)c1ccc(O)c2[nH]c(=O)ccc12` (stereo not given) [PROCATEROL], the half-maximal activity concentration (AC50) (in experiment [1]; in experiment [2]; at Glucocorticoid receptor; on D(3) dopamine receptor; in experiment [3]; in experiment [4]) was more than 30 µM throughout. Further, the half-maximal activity concentration (AC50) in experiment [5] is more than 30 µM.

For `CCc1nc(N)nc(N)c1-c1ccc(Cl)cc1` [PYRIMETHAMINE], the AC50 in experiment [1] is more than 10 µM; in experiment [2], 0.649 µM; at Glucocorticoid receptor, more than 10 µM; on D(3) dopamine receptor it was more than 30 µM; in experiment [3] it was more than 30 µM; in experiment [4], more than 10 µM. Besides, the half-maximal activity concentration (AC50) in experiment [5] was more than 30 µM.

For `C=CC[N+]1([C@H]2C[C@H]3[C@@H]4CC[C@H]5C[C@H](O)[C@@H](N6CCOCC6)C[C@]5(C)[C@H]4CC[C@]3(C)[C@H]2OC(C)=O)CCCC1` [ROCURONIUM], the AC50 was 1.2 µM in experiment [1]; 1.06 µM in experiment [2]; more than 30 µM on Glucocorticoid receptor; more than 30 µM on D(3) dopamine receptor; more than 30 µM in experiment [3]; more than 30 µM in experiment [4]. The half-maximal activity concentration (AC50) in experiment [5] is more than 30 µM.

Regarding `Cc1cc(C)nc(NS(=O)(=O)c2ccc(N)cc2)n1` [SULFAMETHAZINE], the half-maximal activity concentration (AC50) is more than 10 µM in experiment [1]; more than 30 µM in experiment [2]; more than 10 µM at Glucocorticoid receptor; more than 30 µM at D(3) dopamine receptor; more than 30 µM in experiment [3]; more than 10 µM in experiment [4]. This molecule also displayed an AC50 in experiment [5] of more than 30 µM.

`CCN1CCCC1CNC(=O)c1cc(S(=O)(=O)CC)ccc1OC` (stereo not given) [SULTOPRIDE]: the half-maximal activity concentration (AC50) was more than 30 µM in experiment [1]; 3.5 µM in experiment [2]; more than 30 µM at Glucocorticoid receptor; more than 30 µM on D(3) dopamine receptor; more than 30 µM in experiment [3]; more than 30 µM in experiment [4]. The AC50 in experiment [5] is more than 30 µM.

With `C=CCN1CCc2nc(N)sc2CC1` [TALIPEXOLE], the concentration at half-maximal activity (AC50) in experiment [1] was more than 30 µM; in experiment [2] it was more than 30 µM; on Glucocorticoid receptor, more than 30 µM; on D(3) dopamine receptor it was 0.48 µM; in experiment [3], more than 30 µM; in experiment [4], more than 30 µM. This molecule displayed a half-maximal activity concentration (AC50) in experiment [5] of more than 30 µM.

For the molecule `CCOC(=O)c1ccc(C#Cc2ccc3c(c2)C(C)(C)CCS3)nc1` [TAZAROTENE], the concentration at half-maximal activity (AC50) (in experiment [1]; in experiment [2]; on Glucocorticoid receptor; at D(3) dopamine receptor; in experiment [3]; in experiment [4]) was more than 30 µM in each case. Also, the AC50 in experiment [5] is more than 10 µM.

Take `CCOC(=O)[C@@H](N)Cc1ccc(-c2cc(O[C@H](c3ccc(Cl)cc3-n3ccc(C)n3)C(F)(F)F)nc(N)n2)cc1` [TELOTRISTAT ETHYL]: the AC50 is 11 µM in experiment [1]; 26 µM in experiment [2]; 23 µM at Glucocorticoid receptor; more than 30 µM on D(3) dopamine receptor; more than 30 µM in experiment [3]; more than 30 µM in experiment [4]. In experiment [5], this molecule returned an AC50 of more than 30 µM.
